From patent US10150765B2, “P2X7 modulators” (Janssen Pharmaceutica NV, priority 2013, dated 2018)

target: P2X7 (Homo sapiens (Human), UniProt Q99572); assay: P2X7 antagonism in human PBMCs (LPS + Bz-ATP induced IL-1β release, ELISA); type: cell-based; details: 10 μM compound, LPS 30 ng/ml + 0.5 mM Bz-ATP
Sequence (Q99572 whole entry): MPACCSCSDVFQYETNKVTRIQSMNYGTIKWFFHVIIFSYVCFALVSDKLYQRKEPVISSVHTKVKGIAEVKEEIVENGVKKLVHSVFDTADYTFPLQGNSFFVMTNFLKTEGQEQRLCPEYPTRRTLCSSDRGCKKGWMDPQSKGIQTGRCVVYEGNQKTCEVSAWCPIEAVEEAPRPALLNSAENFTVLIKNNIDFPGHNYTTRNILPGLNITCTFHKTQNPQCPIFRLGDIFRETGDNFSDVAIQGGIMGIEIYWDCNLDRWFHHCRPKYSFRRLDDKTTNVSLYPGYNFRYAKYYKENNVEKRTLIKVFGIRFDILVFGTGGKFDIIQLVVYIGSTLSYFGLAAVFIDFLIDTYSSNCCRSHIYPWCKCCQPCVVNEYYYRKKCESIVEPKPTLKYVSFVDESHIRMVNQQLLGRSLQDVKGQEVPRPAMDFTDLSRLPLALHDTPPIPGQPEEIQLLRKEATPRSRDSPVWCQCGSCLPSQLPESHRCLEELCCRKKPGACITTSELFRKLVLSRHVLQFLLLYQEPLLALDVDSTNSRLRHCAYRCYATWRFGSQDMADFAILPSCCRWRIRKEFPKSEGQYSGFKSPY
Protocol: Human blood was collected using a blood donor program. PBMCs were isolated from blood using a Ficoll density gradient technique. Briefly, blood was laid on Ficoll solution and centrifuged at RT for 20 minutes at 2000 rpm. The buffy layer (between red blood cells and plasma) was carefully collected by aspiration, washed with PBS and centrifuged again at 1500 rpm for 15 minutes. The resulting cell pellet was washed and plated on 96 well-plates for experiments. […] Lipopolysaccharide (LPS) (30 ng/ml) was added to each well and incubated for 1 hour. Test compounds were then added and incubated for 30 minutes. The P2X7 agonist, 2′(3′)-O-(4-benzoylbenzoyl) adenosine 5′ triphosphate (Bz-ATP) was then added at a final concentration of 0.5 mM (PBMC) or 1 mM (blood). Cells were incubated for an additional 1.5 hours. At that point, supernatant was collected and stored for IL-1β assay using manufacturer's protocol for enzyme-linked immunosorbent assay (ELISA). Data was expressed as percent control, where control is defined as the difference in IL-1β release in LPS+Bz-ATP samples and LPS only samples. Data was plotted as response (% control) versus concentration to generate IC50 values.

Going from `CC1c2nnn(-c3ncccn3)c2CCN1C(=O)c1ccc(Cl)cc1Cl` (stereo not drawn) [Example 283, (2,4-dichlorophenyl)(4-methyl-1-(pyrimidin-2-yl)-6,7-dihydro-1H-[1,2,3]triazolo[4,5-c]pyridin-5(4H)-yl)methanone] to `Cc1nc(-n2nnc3c2CCN(C(=O)c2cccc(C(F)(F)F)c2Cl)C3C)ncc1F` (single isomer, unassigned) [Example 306, (S*)-(2-chloro-3-(trifluoromethyl)phenyl)(1-(5-fluoro-4-methylpyrimidin-2-yl)-4-methyl-6,7-dihydro-1H-[1,2,3]triazolo[4,5-c]pyridin-5(4H)-yl)methanone], the “PBMC 10 μM (% control)” value rises from −6.3 % control to 2.5 % control.

First: C[C@@H]1c2nnn(-c3ccc(F)cc3)c2C[C@H](C)N1C(=O)c1cccc(C(F)(F)F)c1Cl [Example 287, (2-chloro-3-(trifluoromethyl)phenyl)((4R,6 S)-1-(4-fluorophenyl)-4,6-dimethyl-6,7-dihydro-1H-[1,2,3]triazolo[4,5-c]pyridin-5(4H)-yl)methanone]
Second: Cc1cc(C)nc(-n2nnc3c2CCN(C(=O)c2cccc(C(F)(F)F)c2Cl)C3C)n1 (stereo not drawn) [Example 253, (2-Chloro-3-(trifluoromethyl)phenyl)(1-(4,6-dimethylpyrimidin-2-yl)-4-methyl-6,7-dihydro-1H-[1,2,3]triazolo[4,5-c]pyridin-5(4H)-yl)methanone]
The “PBMC 10 μM (% control)” value of the first is lower: −4.1 % control for the first, −2.6 % control for the second.

Going from `C[C@@H]1c2ncn(-c3ccccn3)c2CCN1C(=O)c1cccc(C(F)(F)F)c1F` (single isomer, unassigned) [Example 42, (4R*)-5-{[2-Fluoro-3-(trifluoromethyl)phenyl]carbonyl}-4-methyl-1-pyridin-2-yl-4,5,6,7-tetrahydro-1H-imidazo[4,5-c]pyridine] to `CC1c2nn(COCC[Si](C)(C)C)c(-c3ncc(F)cn3)c2CCN1C(=O)c1cccc(C(F)(F)F)c1Cl` (stereo not drawn) [Example 303, (2-chloro-3-(trifluoromethyl)phenyl)(3-(5-fluoropyrimidin-2-yl)-7-methyl-2-((2-(trimethylsilyl)ethoxy)methyl)-4,5-dihydro-2H-pyrazolo[3,4-c]pyridin-6(7H)-yl)methanone], the “PBMC 10 μM (% control)” value falls from 5.8 % control to −1.6 % control.
